{
  "source": "patent US8283358B2",
  "about": "“N-sulfonamido polycyclic pyrazolyl compounds” (Elan Pharmaceuticals, Inc., priority 2008, dated 2012)",
  "data": [
    {"tested_on": "gamma secretase in CHO cells expressing APPSwe, NotchΔE and a Notch responsive luciferase reporter gene (SNC-204B8)", "experiment": "SNC dual cell assay for simultaneous assay of A-beta reduction and Notch signaling (Example D)", "settings": "ratio of Notch IC50/Aβ EC50 determined as described in Example D (SNC dual cell assay)", "source_text": "In order to facilitate testing the potency of gamma-secretase inhibitors on two substrates (APP and Notch) simultaneously, a dual-assay using a CHO cell line stably expressing APPSwe, a Notch substrate lacking the ecto-domain, and a Notch responsive Luciferase reporter gene was developed. CHOSwe cells stably over-express the Swedish FAD isoform of APP, and secrete large amounts of Aβ peptide into the conditioned media from endogenous β- and γ-secretase enzyme activity. A Notch intracellular domain (NICD) responsive reporter gene, and the constitutive gamma-secretase Notch substrate, NotchΔE, were stably introduced into CHOSwe cells in a two step process. CHOSwe cells were first stably transfected to express a NICD responsive luciferase reporter gene construct (pGL2-CBF-Luc). […] Stable cell lines expressing rat NotchΔE were then identified in the second step by including a gamma-secretase inhibitor in the selection process (to suppress Notch/NICD toxicity) following transfection of the rat Notch-ΔE construct. […] This vector drives expression of a truncated rat Notch construct corresponding to the c-terminal product following ecto-domain shedding of full length rat Notch protein. The c-terminal product is a constitutive substrate for gamma-secretase cleavage, resulting in release of the cytoplasmic Notch intracellular domain (NICD) product, which translocates to the nucleus and relieves CBF repressed genes. Subsequently, pIRES-ZEDN transfected cells were re-plated at low density in the presence of test compound, and selected with three antibiotics (G418 (0.5 mg/ml)/Hygro (1 mg/ml)/Puro (2.5 mg/ml)). The antibiotic-resistant colonies (named SNC clones for the dual-assay components: APPSwe/NotchΔE/CBF) were isolated and expanded for characterization of Aβ secretion, and NICD responsive reporter gene activity (i.e. luciferase signal in the presence versus absence of test compound). […] A typical dual-assay experiment was performed as follows: Day 1, the SNC cells were plated in 96-well assay plates in inhibitor-free media. Day 2, the cells were fed with fresh media (inhibitor free) and treated with test compounds over a concentration range 0 nM to 40,000 nM (in 10× incremental dilutions) one hour after the media change. The cells were treated with compounds overnight at 37° C. […] For the Notch signaling assay, the cells were lysed and luciferase activity from the lysate was measured using the Promega kit (see below). Day 4, Aβ-ELISA part II was conducted using 3D6-biotin/AP-streptavidin antibodies.", "values": [
      {"smiles": "O=S(=O)(c1ccc(C(F)(F)F)nc1)N1C2Cc3[nH]ncc3C1CC(c1ccc3c(c1)OCO3)C2", "note": "(racemic) [(±)-6-(1,3-benzodioxol-5-yl)-10-{[6-(trifluoromethyl)pyridin-3-yl]sulfonyl}-4,5,6,7,8,9-hexahydro-1H-4,8-epiminocycloocta[c]pyrazole]", "Selectivity Ratio (Notch IC50/Aβ ED50)": "(+) ((+) means a ratio from about 50 to about 99)"},
      {"smiles": "O=C1c2[nH]ncc2C2c3c(F)cccc3C1N2S(=O)(=O)c1ccc(C(F)(F)F)nc1", "note": "(single isomer, unassigned; (-)) [(−)-5-fluoro-11-{[6-(trifluoromethyl)pyridin-3-yl]sulfonyl}-4,9-dihydro-4,9-epiminobenzo[4,5]cyclohepta[1,2-c]pyrazol-10(1H)-one]", "Selectivity Ratio (Notch IC50/Aβ ED50)": "(++++) ((++++) means a ratio of Notch IC50/Aβ EC50 (determined as described in Example D) of >200)"},
      {"smiles": "O=S(=O)(c1ccc(C(F)(F)F)cc1)N1C2c3cn[nH]c3C(F)C1c1cccc(F)c12", "note": "(single isomer, unassigned; (+)) [(+)-5,10-difluoro-11-{[4-(trifluoromethyl)phenyl]sulfonyl}-1,4,9,10-tetrahydro-4,9-epiminobenzo[4,5]cyclohepta[1,2-c]pyrazole]", "Selectivity Ratio (Notch IC50/Aβ ED50)": "(++) ((++) means a ratio from about 100 to about 149)"},
      {"smiles": "O=S(=O)(c1ccc(C(F)(F)F)nc1)N1C2Cc3[nH]ncc3C1CC(c1nc(C(F)(F)F)cs1)C2", "note": "(racemic) [(±)-10-{[6-(trifluoromethyl)pyridin-3-yl]sulfonyl}-6-[4-(trifluoromethyl)-1,3-thiazol-2-yl]-4,5,6,7,8,9-hexahydro-1H-4,8-epiminocycloocta[c]pyrazole]", "Selectivity Ratio (Notch IC50/Aβ ED50)": "(+++) ((+++) means a ratio from about 150 to about 199)"},
      {"smiles": "O=S(=O)(c1ccc(C(F)(F)F)nc1)N1C2Cc3[nH]ncc3C1c1ncc(F)cc12", "note": "(racemic) [(±)-7-fluoro-11-{[6-(trifluoromethyl)pyridin-3-yl]sulfonyl}-1,4,9,10-tetrahydro-4,9-epiminopyrazolo[3′,4′: 5,6]cyclohepta[1,2-b]pyridine]", "Selectivity Ratio (Notch IC50/Aβ ED50)": "(+) ((+) means a ratio from about 50 to about 99)"},
      {"smiles": "O=C1c2[nH]ncc2C2c3cccc(F)c3C1N2S(=O)(=O)c1ccc(C(F)(F)F)nc1", "note": "(single isomer, unassigned; (-)) [(−)-8-fluoro-11-{[6-(trifluoromethyl)pyridin-3-yl]sulfonyl}-4,9-dihydro-4,9-epiminobenzo[4,5]cyclohepta[1,2-c]pyrazol-10(1H)-one]", "Selectivity Ratio (Notch IC50/Aβ ED50)": "(++++) ((++++) means a ratio of Notch IC50/Aβ EC50 (determined as described in Example D) of >200)"},
      {"smiles": "Cc1noc(C2CC3Cc4[nH]ncc4C(C2)N3S(=O)(=O)c2ccc(Cl)cc2)n1", "note": "(racemic) [(±)-10-[(4-chlorophenyl)sulfonyl]-6-(3-methyl-1,2,4-oxadiazol-5-yl)-4,5,6,7,8,9-hexahydro-1H-4,8-epiminocycloocta[c]pyrazole]", "Selectivity Ratio (Notch IC50/Aβ ED50)": "(++++) ((++++) means a ratio of Notch IC50/Aβ EC50 (determined as described in Example D) of >200)"},
      {"smiles": "O=S(=O)(c1ccc(C(F)(F)F)nc1)N1C2Cc3[nH]ncc3C1CC(c1ccc(F)cc1)C2", "note": "(racemic) [(±)-exo-6-(4-fluorophenyl)-10-{[6-(trifluoromethyl)pyridin-3] [(±)-exo-6-(4-fluorophenyl)-10-{[6-(trifluoromethyl)pyridin-3-yl]sulfonyl}-4,5,6,7,8,9-hexahydro-1H-4,8-epiminocycloocta[c]pyrazole]", "Selectivity Ratio (Notch IC50/Aβ ED50)": "(+++) ((+++) means a ratio from about 150 to about 199)"},
      {"smiles": "O=S(=O)(c1ccc(C(F)(F)F)cc1)N1C2c3ccccc3C1C(O)c1[nH]ncc12", "note": "(single isomer, unassigned; (+)) [(+)-endo-11-{[4-(trifloromethyl)phenyl]sulfonyl}-1,4,9,10-tetrahydro-4,9-epiminobenzo[4,5]cyclohepta[1,2-c]pyrazol-10-ol]", "Selectivity Ratio (Notch IC50/Aβ ED50)": "(+++) ((+++) means a ratio from about 150 to about 199)"},
      {"smiles": "O=S(=O)(c1ccc(C(F)(F)F)cc1)N1C2Cc3[nH]ncc3C1c1cccc(-c3cccc(C(F)(F)F)c3)c1C2", "note": "(racemic) [(±)-7-[3-(trifluoromethyl)phenyl]-12-{[4-(trifluoromethyl)phenyl]sulfonyl}-4,5,6,11-tetrahydro-3H-5,11-epiminobenzo[4,5]cycloocta[1,2-c]pyrazole]", "Selectivity Ratio (Notch IC50/Aβ ED50)": "(++) ((++) means a ratio from about 100 to about 149)"},
      {"smiles": "Cc1cc(C2CC3Cc4[nH]ncc4C(C2)N3S(=O)(=O)c2ccc(Cl)cc2)on1", "note": "(racemic) [(±)-10-[(4-chlorophenyl)sulfonyl]-6-(3-methylisoxazol-5-yl)-4,5,6,7,8,9-hexahydro-1H-4,8-epiminocycloocta[c]pyrazole]", "Selectivity Ratio (Notch IC50/Aβ ED50)": "(++++) ((++++) means a ratio of Notch IC50/Aβ EC50 (determined as described in Example D) of >200)"},
      {"smiles": "O=S(=O)(c1ccc(C(F)(F)F)cc1)N1C2Cc3[nH]ncc3C1CC(c1cccc(Br)c1)C2", "note": "(racemic) [(±)-6-(3-bromophenyl)-10-{[4-(trifluoromethyl)phenyl]sulfonyl}-4,5,6,7,8,9-hexahydro-1H-4,8-epiminocycloocta[c]pyrazole]", "Selectivity Ratio (Notch IC50/Aβ ED50)": "(+) ((+) means a ratio from about 50 to about 99)"},
      {"smiles": "O=S(=O)(c1ccc(C(F)(F)F)nc1)N1C2Cc3[nH]ncc3C1CC(c1ccc(F)cc1)C2", "note": "(racemic) [(±)-endo-6-(4-fluorophenyl)-10-{[6-(trifluoromethyl)pyridin-] [(±)-endo-6-(4-fluorophenyl)-10-{[6-(trifluoromethyl)pyridin-3-yl]sulfonyl}-4,5,6,7,8,9-hexahydro-1H-4,8-epiminocycloocta[c]pyrazole]", "Selectivity Ratio (Notch IC50/Aβ ED50)": "(++) ((++) means a ratio from about 100 to about 149)"}
    ]}
  ]
}
